Reference: patent US20120164104A1, “Composition and Methods of Treating Viral Infections and Viral Induced Tumors” (Chimerix, Inc., priority 2009, published 2012)
Read-outs that look alike come from different tables or passages of the source.

Key:
SK-HEP-1 = assay: Cell proliferation assay (MTS or SRB), SK-HEP-1; format: cell-based; settings: Homo sapiens, SK-HEP1, 72 h; SK-HEP-1, Liver, 3 days; read-out: IC50 (cell growth inhibition)
Method: (§1) In vitro cell proliferation assays were performed using a 96-well plate based MTSassay (CellTiter 96° AqueousOne Solution Cell Proliferation Assay, Promega) or SRB (Sulforhodamine-B) assay (1-3). Briefly, cells were plated in 100 μl medium on day 0 in 96-well microtiter plates (Falcon #3072). On day 1, 10 μl of serial dilutions of each compound (Nine 1:2 dilutions with a starting concentration of 100 μM; in some cases, a starting concentration of 400 μM (CMX001 or Cidofovir) or 1 μM (some standard agents)) were added in triplicates to the plates. For standard agents using DMSO as solvent, serial dilutions of DMSO with a starting concentration of 0.5% were also included as a vehicle control.
(§2) After incubation for 3 days at 37° C. in a humidified incubator, viable cells were measured either by MTS or SRB assay. For MTS assay, 20 μl of a 20:1 mixture of (3-(4,5-dimethylthiazol-2-yl)-5-(3-carboxymethoxyphenyl)-2-(4-sulfophenyl)-2H-tetrazolium, inner salt (MTS, 2 mg/ml) and an electron coupling reagent, phenazine methosulfate (PMS, 0.92 mg/ml in DPBS), was added to each well and incubated for 3 hours at 37° C. Absorbance was measured using a BioTek Synergy™ HT Multiple Detection microplate reader at 490 nm. For SRB assay, cells were fixed in situ with 50 μL of cold trichloroacetic acid (TCA, final concentration at 10% w/v) for 60 minutes. Cells were then washed 5 times with H2O and air-dried.
(§3) Next, cells were stained with 20 μL of 0.2% SRB in 1% acetic acid and incubated at room temperature for 30 minutes and unbound SRB was removed by washing 5 times with 1% acetic acid and air-dried. Finally, bound SRB stain was solubilized in 50 μL of 50 μM Tris buffer before taking an optical density measurement at 570 nm using the BioTek microplate reader. The growth inhibition data were expressed as the percentage of cell survival calculated from the background corrected absorbance. The surviving fraction of cells was determined by dividing the mean absorbance values of the test agent-treated samples by the mean absorbance values of untreated control. […]

BKV(Dunlop) = settings: BKV-infected RPTECs, Bernhoff et al., 2008, cited from earlier work
MDA-231 = assay: Cell proliferation assay (MTS or SRB), MDA-231; format: cell-based; settings: Homo sapiens, MDA-MB-231, 72 h; MDA-231, Breast, 3 days; read-out: IC50 (cell growth inhibition)
Method: as §1, §2, §3

Het-1A = assay: Cell proliferation assay (MTS or SRB), Het-1A; format: cell-based; settings: Homo sapiens, 72 h, Esophagus (Normal), SV40 large T immortalized, 3 days, read-out: IC50 (cell growth inhibition)
Method: as §1
After incubation for 3 days at 37° C. in a humidified incubator, viable cells were measured either by MTS or SRB assay. […]
as §3, with “absorbance.” for “absorbance. The surviving fraction of cells was determined by dividing the mean absorbance values of the test agent-treated samples by the mean absorbance values of untreated control.”

BK virus = assay: Antiviral activity against BK virus in RPTEC cells (viral DNA by qPCR, 5 days); format: cell-based; settings: for EC50: Betapolyomavirus hominis, RPTEC, RPTEC cells
Method: In order to test the activity of CMX001 to inhibit replication of BK virus, stocks of BK virus were prepared in HFF cells and dilutions of the virus stocks were used to infect primary human renal tubular epithelial cells (RPTECs). CMX001 were then added to the wells containing the infected cells and the plates were incubated for 5 days. Total DNA was prepared from the plates and viral DNA was quantified by qPCR.

C33A = assay: Cell proliferation assay (MTS or SRB), C33A; format: cell-based, human; settings: Homo sapiens, C-33-A, 72 h, Cervical, 3 days, read-out: IC50 (cell growth inhibition)
Method: as §1, §2, §3

BKV = assay: Stability of CMX001 stock solution, tested by antiviral effect on extracellular BKV load; format: cell-based; settings: diluted to 0.31 uM
Method: FIG. 7 illustrates the stability of CMX001. For FIG. 7, BKV-infected RPTECs were treated with freshly made CMX001 or CMX001 from a stock solution at 1 mg/ml stored for one week at 4° C. or −20° C. Supernatants were harvested 72 h p.i. and extracellular BKV load measured by qPCR. Data are presented as BKV load in percent of untreated cells set at 100%.
To examine the stability of CMX001 stock solution 1 mg/ml was put in 4 or −20° C. for one week then diluted to 0.31 uM and tested for its antiviral effect by measuring the extracellular BKV load in BKV-infected RPTEC 3 d p.i.

Compound | IC50 (SK-HEP-1) [µM] | concentration of CDV inhibiting BKV (IC90) (BKV(Dunlop)) [µg/mL] | IC90 (BKV(Dunlop); read-out: concentration of CDV inhibiting BKV (IC90)) [µM] | IC50 (MDA-231) [µM] | IC50 (Het-1A) [µM] | EC50 (BK virus; virus dilution 1:10, read-out: EC50) [µM] | EC50 (BK virus; virus dilution 1:50, read-out: EC50) [µM] | EC50 (BK virus; virus dilution 1:100, read-out: EC50) [µM] | IC50 (C33A) [µM] | EC50 (BK virus; virus dilution 1:10) [µM] | EC50 (BK virus; virus dilution 1:50) [µM] | EC50 (BK virus; virus dilution 1:100) [µM] | activity against BK virus replication (BK virus; RPTECs, in words) | activity compared to the freshly prepared drug (BKV; stock 1 mg/ml stored one week at 4° C.) | activity compared to the freshly prepared drug (BKV; stock 1 mg/ml stored one week at −20° C.)
Nc1ccn(C[C@@H](CO)OCP(=O)(O)O)c(=O)n1 [cidofovir] | > 100 | 40 | 127 | > 100 | > 100 | 2 | 0.65 | 0.44 | 96.7 | – | – | – | – | – | –
CCCCCCCCCCCCCCCCOCCCOP(=O)(O)CO[C@H](CO)Cn1ccc(N)nc1=O [CMX001] | 7.4 | – | – | 11.2 | 20.5 | – | – | – | 14.3 | 0.016 | 0.0035 | 0.0037 | good activity | less than 60% | approximately 90%
